{"source": "patent US6770673B1", "about": "“Therapeutic uses of arglabin in combination with other chemotherapy agents” (priority 1997, dated 2004)", "key": {"P-815 cells": {"system": "P-815 cells", "test": "Viability of transformed cells, trypan blue exclusion", "format": "cell-based, mouse", "conditions": "about 25 μg/ml, 18 hours", "procedure": "(§1) Mouse mastocytoma (P-815), myeloma (Z-P3x63Ag8.653 and Pai) and human erthyroleukemia (K-562) cell lines were used. Primary cultures of normal mouse hepatocytes were isolated from mouse liver using collagenase. Mouse splenocytes were isolated using a glass homogenizer. Marrow cells were obtained by washing the bone marrow. See, for example, Shears, S. B. and Kirk, C. J. (1984), Biochem. J. 219:375-382.\n(§2) Cells were cultured in RPMI-1640 medium supplemented with 10% fetal calf serum, 100 mM L-glutamine and 50 μg/ml gentamycin at 37° C. under 5% CO2. Cells were seeded into 24-well plates at a density of 50,000 cells/well and grown until near confluency, approximately 2 days, then transferred to 96-well plates at the same density. […] Viability of the cells was determined by trypan blue exclusion. […] Approximately 25% of K-562 and X-653 cells survived at a concentration of 12 μg/ml, and the same proportion of P-815 cells survived at a concentration of about 25 μg/ml."}, "X-653 cells": {"system": "X-653 cells", "test": "Viability of transformed cells, trypan blue exclusion", "format": "cell-based, mouse", "conditions": "12 μg/ml, 18 hours", "procedure": "as §1, §2"}, "hepatocytes": {"system": "hepatocytes", "test": "Viability of primary cultures of normal cells, trypan blue exclusion", "format": "cell-based, mouse", "conditions": "18 hours", "procedure": "as §1, §2\n(§3) Viability was measured by trypan blue exclusion. […] At a concentration of 320 μg/ml, the number of viable splenocytes was reduced by 50% in comparison to the control. At concentrations of 640 μg/ml and 1280 μg/ml, 40% and 10%, respectively, of the splenocytes were still viable. At these same concentrations, approximately 50% and 25% of hepatocytes were still viable. Marrow cells were more sensitive to dimethylaminoarglabin hydrochloride. At a concentration of 160 μg/ml, only about 50% of the marrow cells were still viable. Increasing the concentration to 320 μg/ml reduced the viability to about 25%."}, "splenocytes": {"system": "splenocytes", "test": "Viability of primary cultures of normal cells, trypan blue exclusion", "format": "cell-based, mouse", "conditions": "18 hours", "procedure": "as §1, §2, §3"}, "Solubility in water": {"test": "Solubility in water", "format": "physicochemical"}, "[1]": {"system": "Alveolar Cancer of the liver", "test": "Inhibition of tumor growth in implanted tumors", "format": "in vivo, mice and rats", "conditions": "dose 50 mg/kg"}, "[2]": {"system": "drug resistant metastasis of Pliss' lymphosarcoma", "test": "Model of drug resistant metastasis of Pliss' lymphosarcoma", "format": "in vivo, rats", "conditions": "alone"}, "immune system": {"system": "immune system", "test": "Immune system modulation in intact mice", "format": "in vivo", "procedure": "In intact mice, injection of 10 mg/kg increased the total number of leukocytes through an increase in the absolute number of lymphocytes. […] The nitroblue tetrazolium assay was used to assess the function of the neutrophils. […] With a higher dosage, 20 mg/kg, a decrease in nitroblue tetrazolium positive neutrophils was seen, indicating a decrease in function.\nThe level of the T-suppressor subpopulation was not altered. At a higher dosage (20 mg/kg), overall leukocyte number was not altered, even though B-lymphocyte number decreased and T-lymphocyte decreased to a lesser extent. Natural killer cell number was increased.\nThe increase in T-lymphocytes was accompanied by an increase in the level of the T-helper subpopulation of T-lymphocytes."}}}
{"smiles": "CC1=CCC23OC2(C)CCC2C(CN(C)C)C(=O)OC2C13.Cl", "note": "(stereo not shown) [Dimethylaminoarglabin hydrochloride]", "values": [{"measurement": "cells survived", "setting": "P-815 cells", "value": "Approximately 25%"}, {"measurement": "cells survived", "setting": "X-653 cells", "value": "Approximately 25%"}, {"measurement": "hepatocytes still viable", "setting": "hepatocytes; 640 μg/ml", "value": "approximately 50%"}, {"measurement": "hepatocytes still viable", "setting": "hepatocytes; 1280 μg/ml", "value": "about 25%"}, {"measurement": "number of viable splenocytes reduced in comparison to the control", "setting": "splenocytes; 320 μg/ml", "value": 50, "unit": "%"}, {"measurement": "splenocytes still viable", "setting": "splenocytes; 640 μg/ml", "value": 40, "unit": "%"}, {"measurement": "splenocytes still viable", "setting": "splenocytes; 1280 μg/ml", "value": 10, "unit": "%"}, {"measurement": "solubility in water", "setting": "Solubility in water", "value": "soluble in water"}, {"measurement": "Inhibition of Tumour Growth, % - Alveolar Cancer of the liver", "setting": "[1]", "value": 80.0, "unit": "%"}, {"measurement": "duration of life in comparison with the control group", "setting": "[2]", "value": 128, "unit": "%"}, {"measurement": "total number of leukocytes", "setting": "immune system; 10 mg/kg", "value": "increased"}, {"measurement": "B-lymphocytes", "setting": "immune system; 10 mg/kg daily IP for 10 days", "value": "remained stable"}, {"measurement": "overall leukocyte count", "setting": "immune system; 10 mg/kg daily IP for 10 days", "value": "increased"}, {"measurement": "leukocyte number", "setting": "immune system; 20 mg/kg", "value": "did not result in an overall increase"}, {"measurement": "nitroblue tetrazolium positive neutrophils", "setting": "immune system; 20 mg/kg", "value": "decrease"}, {"measurement": "natural killer cell number", "setting": "immune system; 20 mg/kg daily IP for 10 days", "value": "increased"}]}
